Results taken from patent US10954271B2, “Anti-microbial peptides” (priority 2014, dated 2021).
Converted amounts (≈) assume the structure as drawn. Positions of bridges follow the written chain, without caps; N, C: chain ends. Non-standard residues stand in square brackets, D forms with d. Residues, ends and D or L forms follow the SMILES beside them. d2Nal = N[C@H](Cc1ccc2ccccc2c1)C(=O)O; Nle = CCCC[C@H](N)C(=O)O

Columns and labels:
[1] = test system: Gram-positive and Gram-negative bacteria; assay: Membrane disruption and cell agglutination assessed via microscopy; format: cell-based
Description: (§1) Further, a set of the anti-microbial peptides described herein were tested for their anti-microbial activity on both Gram-positive and Gram-negative bacteria. […] Unexpectedly, it was further observed that the C-terminal residues (denoted by bold font) selectively target gram-negative or gram-positive bacteria, as indicated.
(§2) Anti-microbial activity is reported as the concentration needed to inhibit 50% of bacterial division (ICso, a standard used in the AMP field). […] In contrast, Opt 3-5 have a Phe for Pro substitution in the C-terminal di-peptide, which produces relatively specificity for Gram-negative organisms (e.g. E. coli). Melittin is a cationic-hydrophobic AMP that served as anti-microbial positive control. Agglutination, an attribute assisting in the clearance of bacterial cells during infection, was assessed via microscopy, and was present with all five AMPs.
(§3) (1) Microscopy. Bacteria can be treated with dilutions of AMPs were directly analyzed via microscopy for membrane disruption phenotypes, including cell agglutination, cell lysis, and cell elongation/septum disruption. Cells can be also monitored for septum inhibition and elongation through use of the membrane dye FM5-95 and DAPI. Additionally the cells can be imaged and stained with the Life Technologies LIVE/DEAD® BacLight™ Bacterial Viability Kit For killing kinetics of the anti-microbial peptides.
(2) Agglutination and Protein Aggregation. Using the antimicrobial 96 well assay described above, imaging of the 96 well plate and can provide a method for the determination of the MAC (minimum agglutination concentration) for the bacteria, as described. Torrent et al., PLoS Pathogens 8(11): e1003005 (2012).

[2] = normal beagles (n=4), 5 days of 5× therapeutic dose
[3] = orally administered, canines (beagles)
Excerpt: We further conducted a preliminary study in a large animal canine model to assess cardiovascular and hematologic safety and clearance of the peptide TCAM207 (SEQ NO: 209) from plasma over a multiple day dosing. Male and female purpose bred beagles were randomized to treatment and instrumented with Holter 9 lead electrocardiograph (ECG) jackets and non-invasive oscillographic paw blood pressure monitoring (emkaPAC 4G telemetry). ECG and BP signals were sampled at 500 Hz using GLP compliant software (IOX, EMKA). ECG signals were saved continuously and blood pressure determined hourly. Blood samples were taken before and after 14 days of SC or oral drug administration for complete chemistry panel and CBC analysis. Samples were taken 1, 2, 4, 8, 12, and 24 hours after drug administration on days 1 and 5 for assay of plasma IIP to assess PK profile. After a 1-2 week washout, dogs were randomized to the other arm of the study.

[4] = test system: Gram-positive and Gram-negative bacteria; assay: Non-membrane activity (mode of action: septum inhibition, protein aggregation, cell division); format: cell-based
Description: as §1
Core sequences were cyclized to enhance druggability and anti-microbial activity. Multiple cationic residues increased binding to anionic membrane and intracellular structures. […] The C-terminal di-peptides in these AMPs were used for their ability to enhance oral activity in peptides. It was discovered that they also directed relative anti-microbial activity towards either Gram-positive or negative organisms (Table 1 and FIG. 5). These AMPs appear to have multiple mechanisms of action (Table 1), potentially mediated by specific binding to the bacterial membrane, and their intracellular accumulation (data not shown). In essence, these AMPs are a form of combination therapy.
as §3

[5] = test system: E. coli
[6] = test system: M. smegmatis; assay: M. smegmatis adhesion / anti-biofilm assay, counting crystal violet-positive cells; format: cell-based
Excerpt: A second series of cationic-aromatic AMPs was designed, and linked (via the N-terminus) to linear anti-biofilm peptides. This created a hybrid anti-biofilm/AMP (AB01), with a Gram-positive specific C-terminal di-peptide (dVal-dPro). A model Gram positive organism that rapidly forms biofilms (M. smegmatis; Ojha, A. and G. F. Hatfull, The role of iron in Mycobacterium smegmatis biofilm formation: the exochelin siderophore is essential in limiting iron conditions for biofilm formation but not for planktonic growth. Mol Microbiol, 2007. 66(2): p. 468-83) was used to assess the inhibition of adhesion/anti-biofilm activity of AB01 & two control AMPs, using a 2 day old biofilm.
The effect of three AMPs on M. smegmatis adhesion was measured on day 0 (data not shown) & after 2 days of biofilm growth, counting crystal violet-positive cells (FIG. 5; see O'Toole, G. A., Microtiter dish biofilm formation assay. J Vis Exp, 2011(47)). Control bacterial adhesion was designated as 100%, and the effect of an added AMP on the cell count was quantified as a percent of the control. The AMPs included Model 01, an AMP of the (RW)n series, (RW)4: [17]; AM11, a cyclized analog of the (RW)n series c(RW)3; and AB01, a hybrid of a cyclized AMP and a linear anti-biofilm peptide.

[7] = test system: E. coli; assay: Anti-microbial activity, concentration needed to inhibit 50% of bacterial division (IC50); format: cell-based; settings: for relative specificity Gram-positive versus Gram-negative: from IC50 against E. coli and B. subtilis, Table 1
Description: as §1, §2

[8] = test system: B. subtilis; assay: as above; format: cell-based
Description: as §1, §2

CCCC[C@H](NC(C)=O)C(=O)N[C@H]1CC(=O)NCCCC[C@@H](C(=O)N[C@@H](Cc2ccccc2)C(=O)N[C@H](C(N)=O)C(C)C)NC(=O)[C@H](Cc2c[nH]c3ccccc23)NC(=O)[C@H](CCCNC(=N)N)NC(=O)[C@@H](Cc2ccc3ccccc3c2)NC(=O)[C@@H]2CCCN2C(=O)[C@H](CCCNC(=N)N)NC1=O [Opt 4] (Ac-[Nle]DRP[d2Nal]RWKFV-NH2; lactam 2-8)
Membrane Disruption? [1]: Yes, and Agglutination

Ac-[Nle]DP[d2Nal]RWK[dV][dP]-NH2 (lactam 2-7) [TCAM207]
RBC casts [2]: no RBC casts were noted
change in red blood cell (RBC) count, hemoglobin (Hg), and hematocrit (Hct) [2]: slight (statistically insignificant) decreases in all parameters
time the peptide was stable and remained in the plasma [3]: up to 24 hrs

CCCC[C@H](NC(C)=O)C(=O)N[C@H]1CC(=O)NCCCC[C@@H](C(=O)N[C@H](C(=O)N[C@@H](Cc2ccccc2)C(N)=O)C(C)C)NC(=O)[C@H](Cc2c[nH]c3ccccc23)NC(=O)[C@H](CCCNC(=N)N)NC(=O)[C@@H](Cc2ccc3ccccc3c2)NC(=O)[C@@H]2CCCN2C(=O)[C@H](CCCNC(=N)N)NC1=O [Opt 5] (Ac-[Nle]DRP[d2Nal]RWKVF-NH2; lactam 2-8)
Membrane Disruption? [1]: Yes, and Agglutination
Non-Membrane Activity? [4]: Altered cell

CC[C@H](C)[C@H](NC(=O)[C@H](CCCNC(=N)N)NC(=O)[C@H](Cc1ccccc1)NC(C)=O)C(=O)N[C@@H](CCCNC(=N)N)C(=O)N[C@H](C(=O)N[C@@H](CCCNC(=N)N)C(=O)N[C@H](C(=O)N[C@H]1CC(=O)NCCCC[C@@H](C(=O)N[C@@H](C(=O)N2CCC[C@@H]2C(N)=O)C(C)C)NC(=O)[C@H](CCCNC(=N)N)NC(=O)[C@H](Cc2c[nH]c3ccccc23)NC(=O)[C@H](Cc2ccccc2)NC(=O)[C@@H](Cc2ccc3ccccc3c2)NC(=O)[C@H](CCCNC(=N)N)NC(=O)[C@H](CCCNC(=N)N)NC1=O)C(C)C)C(C)C [AB01, Ac-FRIRVRV-c[Asp-RR-dNal(21-FWR-Lys]-dVal-dPro-CONH2] (Ac-FRIRVRVDRR[d2Nal]FWRK[dV][dP]-NH2; lactam 8-15)
MIC for E. coli [5]: 25 µM
concentration that prevented adhesion in a 2 day old biofilm ([6]; 2 day old biofilm): 3 to 5 µM
potency in inhibition of adhesion/anti-biofilm activity relative to Model 01 ([6]; 2 day old biofilm): ~100 fold
concentration that prevented adhesion on day 0 [6]: 1 µM

CC[C@H](C)[C@H](NC(=O)CN)C(=O)NCC(=O)N[C@@H](C)C(=O)N[C@H](C(=O)N[C@@H](CC(C)C)C(=O)N[C@@H](CCCCN)C(=O)N[C@H](C(=O)N[C@@H](CC(C)C)C(=O)N[C@H](C(=O)N[C@H](C(=O)NCC(=O)N[C@@H](CC(C)C)C(=O)N1CCC[C@H]1C(=O)N[C@@H](C)C(=O)N[C@@H](CC(C)C)C(=O)N[C@H](C(=O)N[C@@H](CO)C(=O)N[C@@H](Cc1c[nH]c2ccccc12)C(=O)N[C@H](C(=O)N[C@@H](CCCCN)C(=O)N[C@@H](CCCNC(=N)N)C(=O)N[C@@H](CCCCN)C(=O)N[C@@H](CCCNC(=N)N)C(=O)N[C@@H](CCC(N)=O)C(=O)N[C@@H](CCC(N)=O)C(N)=O)[C@@H](C)CC)[C@@H](C)CC)[C@@H](C)O)[C@@H](C)O)C(C)C)C(C)C [Melittin, reference compound]
Membrane Disruption? [1]: Yes
Non-Membrane Activity? [4]: None observed
IC50, E. coli; μg/mL ([7]; concentration needed to inhibit 50% of bacterial division): 0.7 µg/mL (≈ 0.246 µM)
IC50 B. subtilis [8]: 20.8 µg/mL (≈ 7.31 µM)

(RW)4 [Model-01, reference compound]
concentration that prevented adhesion in a 2 day old biofilm ([6]; 2 day old biofilm): ≥ 100 µM
concentration that prevented adhesion on day 0 [6]: 10 µM

CCCC[C@H](NC(C)=O)C(=O)N[C@H]1CC(=O)NCCCC[C@@H](C(=O)N[C@H](Cc2ccccc2)C(=O)N[C@@H](C(N)=O)C(C)C)NC(=O)[C@H](Cc2c[nH]c3ccccc23)NC(=O)[C@H](CCCNC(=N)N)NC(=O)[C@@H](Cc2ccc3ccccc3c2)NC(=O)[C@@H]2CCCN2C(=O)[C@H](CCCNC(=N)N)NC1=O [Opt 3] (Ac-[Nle]DRP[d2Nal]RWK[dF][dV]-NH2; lactam 2-8)
Membrane Disruption? [1]: Yes, and Agglutination
Non-Membrane Activity? [4]: None observed

CCCC[C@H](NC(C)=O)C(=O)N[C@H]1CC(=O)NCCCC[C@@H](C(=O)N[C@@H](C(=O)N2CCC[C@@H]2C(N)=O)C(C)C)NC(=O)[C@H](CCCNC(=N)N)NC(=O)[C@@H](Cc2ccc3ccccc3c2)NC(=O)[C@H](CCCNC(=N)N)NC(=O)[C@@H](Cc2ccc3ccccc3c2)NC(=O)[C@@H]2CCCN2C(=O)[C@H](CCCNC(=N)N)NC1=O [Opt 2] (Ac-[Nle]DRP[d2Nal]R[d2Nal]RK[dV][dP]-NH2; lactam 2-9)
Membrane Disruption? [1]: Yes, and Agglutination
relative specificity Gram-positive versus Gram-negative [7]: relatively specific for B. subtilis

CCCC[C@H](NC(C)=O)C(=O)N[C@H]1CC(=O)NCCCC[C@@H](C(=O)N[C@@H](C(=O)N2CCC[C@@H]2C(N)=O)C(C)C)NC(=O)[C@@H](Cc2ccc3ccccc3c2)NC(=O)[C@H](CCCNC(=N)N)NC(=O)[C@@H](Cc2ccc3ccccc3c2)NC(=O)[C@@H]2CCCN2C(=O)[C@H](CCCNC(=N)N)NC1=O [Opt 1] (Ac-[Nle]DRP[d2Nal]R[d2Nal]K[dV][dP]-NH2; lactam 2-8)
Membrane Disruption? [1]: Yes, and Agglutination
relative specificity Gram-positive versus Gram-negative [7]: relatively specific for B. subtilis
